Data on 14 compounds can be found in patent US7390826B2, “Inhibitors of animal cell motility and growth” (The Board of Trustees of The University of Illinois, priority 2002, dated 2008).

Like-named read-outs stand apart in the source and are kept apart here.

For one assay, the system named is Xenopus laevis embryos. As to the kind of experiment: frog embryo morphogenesis assay (scoring of developmental defects). The assay is classed as in vivo. The settings on record: Xenopus laevis, read-out: EC50 with respect to the defective phenotype at 72 hr following treatment. The source says: In order to identify compounds that specifically perturb morphogenesis in the frog embryo, a suitable method for scoring embryos by characteristic defects was developed. A useful starting point was the “dorso-anterior index” (DAI). The DAI originally was constructed by adding new morphological characteristics to the older “index of axis deficiency” (S. R. Scharf et al., Dev. Biol., 99, 75-87 (1983)). The DAI is a scale of dorsoanterior development wherein embryos are assigned a score based on degree of dorsoanterior phenotype (K. R. Kao et al., Dev. Biol., 127, 64-77 (1988)). The scale encompasses a score of 0 (for the most axis-deficient or ventralized embryos) to 10 (for embryos with the most enhanced dorsoanterior structures), with a score of 5 signifying a normal embryo.
Because the DAI focuses only on dorsoanterior phenotypes, other categories were added to describe possible defects more comprehensively, with an emphasis on characteristics that are easily and unambiguously recognized in intact embryos, and that are diagnostic of possible effects on morphogenesis during gastrulation and neurulation. The most useful and readily scored categories that covered the most frequent deficiencies were: reduced anterior structures and microcephaly, delayed appearance or absence of eye pigmentation, overall shortness along the anteroposterior axis, bent axis, bent tail only, reduced posterior structures/tail, malformed or reduced fins, delayed or failed neural tube closure (neural fold fusion), abnormal pigmentation pattern, ventral swelling (edema), and delayed or abnormal visceral organogenesis and yolk resorption. In addition, blastopore closure, an earlier process that marks the completion of gastrulation, was observed.
In these tests, test compounds were added individually to wells each containing 4-8 embryos in 12-well plates. Embryos at stage 8.5-9, according to the classification of Nieuwkoop and Faber (P. I. Nieuwkoop et al., Normal Table of Xenopus laevis (Daudin). Amsterdam: North-Holland Publ.) (1967)), were used because these are late blastula stages before gastrulation begins at stage 10, which allowed focusing primarily on compounds that affect morphogenetic events in gastrulation and neurulation. These embryos, therefore, have undergone a midblastula transition at stage 8 (cleavage division 12) when zygotic transcription begins (J. Newport et al., Cell, 30, 675-686 (1982); J. Newport et al., Cell, 30, 687-696 (1982)) but have not yet started the morphogenetic movements of gastrulation.
Standard procedures were used in the care of animals, gamete preparation, fertilization of oocytes, and culture of embryos (B. K. Kay et al., Methods in Cell Biology, Volumn 36 (San Diego: Academic Press, Inc.) (1991)). In order to stimulate ovulation, female frogs were injected with 500 units of human chorionic gonadotropin (HCG). Eggs were squeezed from female frogs 12 hours later. Testes were removed from euthanized male frogs that had been primed with 50 units of HCG 4-6 hours earlier. The testes were stored at 4° C. in single strength Marc's Modified Ringer's solution with 50 μg/ml gentamycin and used for no more than 10 days. Small pieces of testes were macerated and spread over eggs for in vitro fertilization in Petri dishes. Fertilized eggs were placed in one-tenth strength Modified Barth's Saline (MBS) with 50 μg/ml gentamycin at constant temperature (19° C.) in a temperature-controlled incubator and development allowed to proceed under these conditions. Embryos were dejellied by briefly swirling them in a solution of 2% (w/v) L-cysteine, pH 8.0. The embryos then were rinsed extensively with one-tenth strength MBS to wash out the cysteine. Experiments were started within an hour of dejellying the embryos.
Experiments were carried out in 12-well flat-bottom polystyrene plates with 4-8 embryos per well in 1.0 ml of one-tenth strength MBS with 50 μg/ml gentamycin at 19° C. […]

For assay [1], the system named is Madin-Darby canine kidney (MDCK) cell monolayers. The assay is described as follows: scrape-wound closure assay in MDCK cell monolayers. The assay is classed as cell-based. The settings on record: even at the highest concentration tested (500 μM). An excerpt: A method of determining the ability of a compound to inhibit or accelerate cell motility is a scrape-wound closure assay using cultured mammalian epithelial cell monolayers. Mechanical scraping of the epithelial monolayer induces cell sheet migration into the resulting gap, a phenomenon characteristic of wounded epithelia and mechanistically related to normal epithelial movements during embryonic morphogenesis (A. Jacinto et al., Nat. Cell Biol, 3, E117 (2001)). Epithelial cell sheet migration in this method proceeds by a Rac- and phosphoinositide-dependent cell crawling mechanism resembling the motility of other animal cells that move as individuals rather than as cell sheets (G. Fenteany et al., Curr. Biol., 10, 831 (2000)).
Wound closure in MDCK cell monolayers primarily involves cell spreading and motility rather than proliferation based on observations and treatments that block cell growth without inhibiting closure. However, after closure is complete and the gap is covered, cell division is observed in the former wound area, presumably as part of a homeostatic mechanism to regain the original cell density (M. F. Olson et al., Science, 269, 1270 (1995)). Wound closure involves Rac- and phosphoinositide-dependent actin polymerization and protrusion-driven cell crawling behavior, where force generation for movement is distributed from the wound margin to several rows of cells behind the margin. Accordingly, this method is excellent for determining whether a compound affects cell motility.
Cell culture conditions: Madin-Darby canine kidney (MDCK) cells (American Type Culture Collection cell line CCL-34) were cultured in Minimum Essential Medium (with Earle's balanced salts, non-essential amino acids, L-glutamine and sodium pyruvate) supplemented with 10% newborn calf serum at 37° C. and 5% carbon dioxide (CO2). Main cultures were grown in either […] tissue culture flasks with medium changes every two days. When cultures were about 75% confluent, cells were passaged by rinsing twice with single strength phosphate buffered saline (PBS) and treating with a solution of 0.05% (w/v) trypsin/0.02% (w/v) ethylenediaminetetraacetic acid (EDTA) in PBS to detach cells from the flasks. After cells were detached, an equal volume of serum-containing medium was added to inhibit the trypsin and cell density was determined using a hemacytometer. Cells were replated following dilution in fresh medium on new tissue culture flasks for continued culture and multiwell tissue culture plates for experiments. No culture used exceeded 15 passages. Experimental cultures were grown in 12-, 24-, 48-, or 96-well tissue culture plates with medium changes every two days.
Wound closure assay and compound screening: MDCK cells were plated on multiwell tissue culture plates and cultured at 37° C. and 5% CO2 with medium changes every two days until confluent. When the cultures reached confluence, medium was changed again and all experimental treatments were begun a day later. Compounds were solubilized in dimethyl sulfoxide (DMSO) and added with fresh-medium to cell cultures at initial screening concentrations of 10 and 100 μM. Controls consisted of parallel wells to-which DMSO solvent carrier alone was added at the same concentration as that added with experimental treatments (not exceeding 0.1% (v/v)). DMSO alone at this concentration had no detectable effect on the cells. Monolayers were scraped 30 min later with a micropipette and ultramicro tips, allowing small wounds of consistent size to be generated. Progress of wound closure was examined at set time intervals following wounding by microscope, and inhibitory or acceleratory effects on wound closure relative to parallel controls noted. […] Digital images of the wounded monolayers were taken every 2 hours for 18 hours, and then at 30, 36, 54, 60, and 72 hours following wounding. The number of lamellipodia at the wound margin was also counted at these times. […]

The test system of the next assay is MDCK cells. The assay is described as follows: MDCK cell proliferation. Format: cell-based, canine. The method, then:
In FIG. 2A, cells were plated at low cell density (1×10^4 cells/mL) and allowed to attach and begin to grow for 48 hours prior to the start of experiment. The treatments were 0.1% DMSO (control, n=9 cultures), 50 μM compound 1 (n=8), or 50 μM compound 11 (n=7). Reported values are mean with SEM of the percent increase in cell number from 0 to 48 hours after addition of compound 1.
The values were mean with SEM of the percent increase in cell number another 48 hours after replacement of medium containing 50 μM compound 1 (n=8 cultures) or 0.1% DMSO (n=9) with fresh medium containing 0.1% DMSO.
MDCK cell proliferation: MDCK cells were plated on multiwell tissue culture plates at low density ([…]). Cells were allowed to attach and begin to grow for 48 hours before the start of the experiment. Fresh medium with or without compound was then added, and cells were incubated for 48 hours. At both 0 and 48 hours, some of the parallel wells for control and compound treatments were washed twice with PBS and treated with trypsin/EDTA solution to detach the cells. An equal volume of medium was added, cells were collected and counted using a hemacytometer. For reversibility, some of the parallel cultures for both control and compound treatments were grown another 48 hours after washing twice with PBS and replacing medium with fresh compound-free medium. At both the time of washing out and 48 hours later, some of the parallel wells for control and compound treatments were washed twice with PBS, detached from the plates with trypsin/EDTA solution, and the number of cells was counted.

For another assay, the system named is MDCK cell wounds. The assay is described as follows: lamellipodial density at the margin of MDCK cell wounds. Format: cell-based, canine. The settings on record: 50 μM, mean ± SEM, * p<0.05 vs control. More on the design: key to Lamellipodial Density: lamellipodial protrusions per unit margin perimeter length. The method, then: Lamellipodial protrusion is known to drive most forms of animal cell crawling. At any given time in the migrating cell sheet, some cells are extending lamellipodia at the margin while others are not. […] Therefore, inhibition of cell sheet migration by compound 1 at least in part is attributed to reduced formation of lamellipodia at the would margin.
Lamellipodial density at the margin of MDCK cell wounds was determined under the following treatment conditions: 0.1% DMSO (control, n=25 wounded monolayers), 50 μM compound 1 (n=19), or 50 μM compound 11 (n=10). Lamellipodial density is the number of lamellipodial protrusions detected at the wound margin until closure for the times indicated divided by margin perimeter length. Values are mean±SEM.
Wound closure assay and compound screening: MDCK cells were plated on multiwell tissue culture plates and cultured at 37° C. and 5% CO2 with medium changes every two days until confluent. When the cultures reached confluence, medium was changed again and all experimental treatments were begun a day later. Compounds were solubilized in dimethyl sulfoxide (DMSO) and added with fresh-medium to cell cultures at initial screening concentrations of 10 and 100 μM. Controls consisted of parallel wells to-which DMSO solvent carrier alone was added at the same concentration as that added with experimental treatments (not exceeding 0.1% (v/v)). DMSO alone at this concentration had no detectable effect on the cells. Monolayers were scraped 30 min later with a micropipette and ultramicro tips, allowing small wounds of consistent size to be generated. Progress of wound closure was examined at set time intervals following wounding by microscope, and inhibitory or acceleratory effects on wound closure relative to parallel controls noted. […] Digital images of the wounded monolayers were taken every 2 hours for 18 hours, and then at 30, 36, 54, 60, and 72 hours following wounding. The number of lamellipodia at the wound margin was also counted at these times.

[2] abbreviates: 72 hr after treatment, dose-response, 5 concentrations.

As for `C/C=C/C(=O)N1CCOC1=O` [Compound 6], the EC50 (usually the concentration at which the effect is half-maximal) in the assay on Xenopus laevis embryos (72 h) is 39.1 µM. With `CCCC(=O)N1C(=O)OC[C@@H]1Cc1ccccc1` [Compound 11], in assay [1], the “bioactivity in wound closure assay” value is recorded as “no statistically significant bioactivity”. The “inhibition of MDCK cell proliferation (percent increase in cell number)” value with MDCK cells (50 μM, 0 to 48 hours) is “not”. Also, the “bioactivity in cell proliferation assay” value in the assay on MDCK cells (even at the highest concentration tested (500 μM)) is “no statistically significant bioactivity”. For the same compound, the “Lamellipodial Density” value is 0.563 ± 0.148 in the assay with MDCK cell wounds (2 hours); 1.139 ± 0.270 in the assay with MDCK cell wounds (4 hours); 1.289 ± 0.276 in the assay with MDCK cell wounds (6 hours); 1.196 ± 0.312 in the assay on MDCK cell wounds (8 hours); 1.609 ± 0.357 in the assay on MDCK cell wounds (10 hours); 1.368 ± 0.309 with MDCK cell wounds (12 hours). Turning to `CC/C=C/C(=O)N1C(=O)OC[C@@H]1Cc1ccccc1` [Compound 13], the EC50 in the assay with Xenopus laevis embryos (setting [2]) worked out at 54.6 µM. Take `C/C=C/C(=O)N1C(=O)OC[C@@H]1C(C)C` [Compound 15]: in the assay with Xenopus laevis embryos (72 h), the EC50 is 25.9 µM. Turning to `C/C=C\C(=O)N1C(=O)OC[C@@H]1Cc1ccccc1` [Compound 17], the EC50 in the assay on Xenopus laevis embryos (72 h) is 19.1 µM. On to `CCCCC/C=C/C(=O)N1C(=O)OC[C@@H]1Cc1ccccc1` [Compound 23], for which, in the assay with Xenopus laevis embryos (setting [2]), the EC50 was found to be 58.1 µM. For the compound `C/C=C/C(=O)N1C(=O)O[C@@H](c2ccccc2)[C@@H]1C` [Compound 25], the EC50 with Xenopus laevis embryos (72 h) came out at 13.9 µM. Still for that read-out and setting: the same measure for `C/C=C/C(=O)N1C(=O)O[C@H](c2ccccc2)[C@H]1C` [Compound 26]: 12.7 µM; for `C/C=C/C(=O)N1C(=O)OC[C@@H]1c1ccccc1` [Compound 30]: 10.1 µM.

Regarding `CC#CC(=O)N1C(=O)OC[C@@H]1Cc1ccccc1` [Compound 31], in the assay with Xenopus laevis embryos (setting [2]), the EC50 worked out at 5.9 µM. As to `O=C(/C=C/c1cccc(F)c1)N1C(=O)OC[C@@H]1Cc1ccccc1` [Compound 33], in the assay on Xenopus laevis embryos (setting [2]), the EC50 was 47.6 µM. Turning to `C/C=C/C(=O)N1C(=O)OC[C@H]1Cc1ccccc1` [Compound 45], the EC50 with Xenopus laevis embryos (72 h) was determined as 8.9 µM. With `C=CC(=O)N1C(=O)OC[C@@H]1Cc1ccccc1` [Compound 52], in the assay on Xenopus laevis embryos (72 h), the EC50 was found to be 6.1 µM.

Turning to `O=C(/C=C/c1cccc(C(F)(F)F)c1)N1C(=O)OC[C@@H]1Cc1ccccc1` [Compound 54], the EC50 in the assay with Xenopus laevis embryos (setting [2]) stood at 30.4 µM.
